Test results taken from patent publication US12310947B2, “Methods and compositions for unsilencing imprinted genes” (priority 2019, dated 2025).
“Also recorded” adds a separate entry of the source.

What was measured:
[1] = test system: paternal Ube3a-YFP; test: Western blot of UBE3A-YFP protein (anti-GFP) in Ube3a^m+/pYFP cortical neurons; assay type: cell-based, mouse; settings: Topotecan 0.3 μM, PHA533533 1.0 μM; for UBE3A-YFP protein from the paternal allele (western blot): 72 hr, Compound X 0.5 μM, Compound Y 0.5 μM, EPZ5676 3 μM, EPZ5676 1 μM with P5-A4 1 μM, analogues 1 μM; for unsilencing of paternal Ube3a-YFP with CDK2 knocked down: CDK2 shRNA knockdown; for unsilencing of paternal Ube3a-YFP with CDK5 knocked down: CDK5 shRNA knockdown
Experimental: Cultured cortical neurons were infected at DIV 3 and virus was removed the next day (DIV 4). Neurons were further cultured and treated at DIV 10 with vehicle (0.1% DMSO) or the indicated compounds. To perform western blot analysis, the cultured neurons from 6-well plates were harvested and total protein was extracted with protein extraction buffer 72 hr after drug treatment, Bradford assays were performed to measure protein concentration, and 30 μg of total protein was loaded for Bis-polyacrylamide gel electrophoresis (Bio-Rad). Electrophoresed proteins were transferred to nitrocellulose membrane (0.45 μm, Bio-Rad). Membranes were blocked with 5% non-fat milk in 1×TBS-T at room temperature for 30 min followed by overnight 4° C. incubation with primary antibodies [rabbit anti-GFP (1:1000, Novus Biologicals), rabbit anti-Ube3a (1:1000, Bethyl Lab), rabbit anti-H3K79Me2 (1:1000, Abcam), rabbit anti-H3K79Me3 (1:1000, Abcam), and mouse anti-β-actin (1:5000, Sigma)]. The next day, the immunoblot membranes were rinsed with 1×TBS-T three times and incubated with HPR-conjugated secondary antibodies for 1 hr at room temperature (goat anti-rabbit @ 1:1000 or goat anti-mouse @ 1:1000, Vector Labs). Following secondary antibody incubation, the membranes were rinsed (4-5 times) with 1×TBS-T at room temperature for 1 hr and ECL (Bio-Rad) was used to visualize detected proteins using an Amersham Imager 600 (AI600, GE Life Sciences).

[2] = test system: DOT1L; test: Western blot of H3K79 methylation (anti-H3K79me2, anti-H3K79me3) in cortical neurons; assay type: cell-based, mouse; settings: PHA533533 1.0 μM, Compound X 0.5 μM, EPZ5676 3 μM
Text: shRNA knockdown and western blot analysis: Lentiviral shRNAs of Top1 (TRCN0000011884), CDK2 (TRCN0000023146), and CDK5 (TRCN0000009520) were generated using previously described techniques. Cultured cortical neurons were infected at DIV 3 and virus was removed the next day (DIV 4). Neurons were further cultured and treated at DIV 10 with vehicle (0.1% DMSO) or the indicated compounds. To perform western blot analysis, the cultured neurons from 6-well plates were harvested and total protein was extracted with protein extraction buffer 72 hr after drug treatment, Bradford assays were performed to measure protein concentration, and 30 μg of total protein was loaded for Bis-polyacrylamide gel electrophoresis (Bio-Rad). Electrophoresed proteins were transferred to nitrocellulose membrane (0.45 μm, Bio-Rad). Membranes were blocked with 5% non-fat milk in 1×TBS-T at room temperature for 30 min followed by overnight 4° C. incubation with primary antibodies [rabbit anti-GFP (1:1000, Novus Biologicals), rabbit anti-Ube3a (1:1000, Bethyl Lab), rabbit anti-H3K79Me2 (1:1000, Abcam), rabbit anti-H3K79Me3 (1:1000, Abcam), and mouse anti-β-actin (1:5000, Sigma)]. […] Following secondary antibody incubation, the membranes were rinsed (4-5 times) with 1×TBS-T at room temperature for 1 hr and ECL (Bio-Rad) was used to visualize detected proteins using an Amersham Imager 600 (AI600, GE Life Sciences).

[3] = test system: Snord116; test: Quantitative RT-PCR of Snord116 mRNA in cultured cortical neurons; assay type: cell-based, mouse; settings: qPCR normalized to β-actin, after drug treatment
Experimental: (§1) Cell culture and drug treatment: Primary cortical neurons were isolated and cultured by following established protocol. Briefly, cortical neurons were isolated from embryos (E13.5-15.5) carrying paternal Ube3a-YFP (Ube3a^m+/pYFP) or maternal deletion of Ube3a (Ube3a^m−/p+). Isolated cortical neurons were plated onto 384-well plates coated with poly-D-lysine (2.0×10^4 cell/well) for high-content imaging analysis or 6-well plates coated with poly-D-lysine (1.0×10^6 cells/well) for molecular and biochemical assays (western blot analysis, quantitative RT-PCR, and shRNA knockdown). Cultured neurons were maintained for 7 days, replacing medium every 3-4 days. On day 7 (DIV 7), the indicated compounds were added at 0.3-1 μM to neurons for 72 hr to unsilence paternal Ube3a or Ube3a-YFP.
(§2) Quantitative real-time PCR and topoisomerase-based DNA relaxation assay: Quantitative real-time PCR (qPCR) was performed using previously reported protocols. Briefly, total RNA was extracted from cultured cortical neurons carrying Ube3a^m+/pYFP after drug treatment using Direct-zol RNA kit (Zymo Research). cDNA pool was synthesized using 2 μg of total RNA and qScript cDNA Supermix (Quantabio). qPCR was performed using SsoAdvanced Universal SYBR green Supermix (Bio-rad). […] Relative quantity (RQ) was calculated after normalized ΔΔCt was calculated. […]

[4] = test system: Ube3a-YFP mRNA; test: Quantitative RT-PCR of Ube3a-YFP mRNA in cultured cortical neurons; assay type: cell-based, mouse; settings: qPCR normalized to β-actin, after drug treatment
Experimental: as §1, §2

[5] = test system: Ube3a-ATS; test: Quantitative RT-PCR of Ube3a-ATS mRNA in cultured cortical neurons; assay type: cell-based, mouse; settings: qPCR normalized to β-actin, after drug treatment
Experimental: as §1, §2

[6] = molecular target: T1, Top2a (Homo sapiens, UniProt P11388); test: Topoisomerase-based DNA relaxation assay, Top2a (kDNA decatenation); assay type: biochemical; settings: catenated versus decatenated kDNA on agarose gel
T1 construct: purchased TopoGEN
T1 sequence (P11388 whole entry): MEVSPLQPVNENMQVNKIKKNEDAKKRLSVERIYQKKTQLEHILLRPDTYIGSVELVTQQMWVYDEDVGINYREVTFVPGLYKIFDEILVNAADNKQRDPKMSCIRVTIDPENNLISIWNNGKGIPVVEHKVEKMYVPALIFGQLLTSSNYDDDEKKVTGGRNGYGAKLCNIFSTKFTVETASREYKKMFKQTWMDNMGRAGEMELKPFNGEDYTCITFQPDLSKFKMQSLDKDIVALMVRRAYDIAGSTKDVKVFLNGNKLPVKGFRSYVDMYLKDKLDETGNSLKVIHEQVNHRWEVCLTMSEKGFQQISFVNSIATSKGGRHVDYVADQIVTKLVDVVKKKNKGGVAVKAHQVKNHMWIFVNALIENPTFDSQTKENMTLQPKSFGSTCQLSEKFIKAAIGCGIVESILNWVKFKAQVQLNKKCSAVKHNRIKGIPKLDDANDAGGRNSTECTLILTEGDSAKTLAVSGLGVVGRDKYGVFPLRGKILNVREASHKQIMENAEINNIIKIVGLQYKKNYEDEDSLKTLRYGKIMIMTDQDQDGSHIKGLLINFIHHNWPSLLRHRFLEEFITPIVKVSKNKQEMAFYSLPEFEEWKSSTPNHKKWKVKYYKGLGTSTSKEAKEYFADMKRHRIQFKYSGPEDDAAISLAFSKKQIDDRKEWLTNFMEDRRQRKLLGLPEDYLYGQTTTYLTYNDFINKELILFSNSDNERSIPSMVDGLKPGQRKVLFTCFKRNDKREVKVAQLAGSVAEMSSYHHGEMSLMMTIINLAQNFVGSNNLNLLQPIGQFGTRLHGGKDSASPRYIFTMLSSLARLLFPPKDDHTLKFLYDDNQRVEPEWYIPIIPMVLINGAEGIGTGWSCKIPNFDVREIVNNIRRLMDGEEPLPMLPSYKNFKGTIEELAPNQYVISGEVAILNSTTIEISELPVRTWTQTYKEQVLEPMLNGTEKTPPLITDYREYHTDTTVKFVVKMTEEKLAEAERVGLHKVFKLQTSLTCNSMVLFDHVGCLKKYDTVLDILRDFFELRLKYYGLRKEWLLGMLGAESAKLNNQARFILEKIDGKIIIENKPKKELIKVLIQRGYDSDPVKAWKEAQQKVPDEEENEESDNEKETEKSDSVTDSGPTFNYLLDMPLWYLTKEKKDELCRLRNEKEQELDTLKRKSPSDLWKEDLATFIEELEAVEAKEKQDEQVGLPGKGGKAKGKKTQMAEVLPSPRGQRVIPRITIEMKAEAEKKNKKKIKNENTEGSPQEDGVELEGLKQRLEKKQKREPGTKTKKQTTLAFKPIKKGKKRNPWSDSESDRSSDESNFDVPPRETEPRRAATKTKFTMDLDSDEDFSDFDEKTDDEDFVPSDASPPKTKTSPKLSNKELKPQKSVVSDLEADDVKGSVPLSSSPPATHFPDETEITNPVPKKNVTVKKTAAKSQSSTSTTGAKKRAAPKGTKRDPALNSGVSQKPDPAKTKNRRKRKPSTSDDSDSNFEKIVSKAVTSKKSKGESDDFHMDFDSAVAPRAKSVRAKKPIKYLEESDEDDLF
Experimental: Quantitative real-time PCR and topoisomerase-based DNA relaxation assay: Quantitative real-time PCR (qPCR) was performed using previously reported protocols. Briefly, total RNA was extracted from cultured cortical neurons carrying Ube3a^m+/pYFP after drug treatment using Direct-zol RNA kit (Zymo Research). cDNA pool was synthesized using 2 μg of total RNA and qScript cDNA Supermix (Quantabio). qPCR was performed using SsoAdvanced Universal SYBR green Supermix (Bio-rad). The primer sets were β-actin (forward, 5′-[…]-3′, SEQ ID NO:1; reverse, 5′-[…]-3, SEQ ID NO:2), YFP (forward, 5′-[…]-3′, SEQ ID NO:3; reverse, 5′-[…]-3′, SEQ ID NO:4), Ube3a-ATS (forward, 5′-[…]-3′, SEQ ID NO:5; reverse, 5′-[…]-3′, SEQ ID NO:6), Snrpn (forward, 5′-[…]-3′, SEQ ID NO:7; reverse, 5′-[…]-3′, SEQ ID NO:8), and Snord116 (forward, 5′-[…]-3′, SEQ ID NO:9; reverse, 5′-[…]-3′, SEQ ID NO:10). qPCR was performed using QuantStudio thermocycler (Thermo Fisher) with the following conditions: 95° C. for 5 min and followed by 40 cycles of 95° C. 10 sec, 60° C. 1 min. Relative quantity (RQ) was calculated after normalized ΔΔCt was calculated. Topoisomerase (Top)-based DNA relaxation assays were performed to test whether the drugs inhibited Top1, Top2a, and Top2b. Top1 and Top2a assay kits were purchased from TopoGEN, and Top2b enzyme was purchased from Inspiralis. All Top-based assays followed manufacturer protocols.

[7] = test system: paternal Ube3a-YFP; test: High-content imaging of paternal UBE3A-YFP in cultured cortical neurons (GFP antibody-enhanced fluorescence); assay type: cell-based, mouse; settings: for percent of neurons expressing UBE3A-YFP above threshold: cultured mouse cortical neurons, 72 hr treatment, n=4, DMSO control 0.03±0.004%; for unsilencing of paternal Ube3a-YFP by imaging, in words: library screen at 1 μM or dose response, 72 hr
Experimental: as §1
Fluorescence immunocytochemistry and high content imaging analysis: Fluorescent immunocytochemistry and high content imaging analysis were performed by following previously described protocols with slight modifications. After 72 hr drug treatment, the neurons were fixed with 4% paraformaldehyde in 1×PBS at room temperature for 10 min. After brief washing with 1×PBS three times, neurons were permeabilized with 1% Triton-X 100 in 1×PBS at room temperature for 15 min, followed by blocking with 5% normal goat serum in 0.1% Triton-X 100 in 1×PBS at room temperature. 60 min after blocking, neurons were incubated with primary antibody, rabbit anti-GFP (1:1000, Novus Biologicals), at 4° C. overnight. Neurons were then briefly washed with 1×PBS followed by incubation with secondary antibody, goat anti-rabbit Alexa Fluor 488 (1:500, Thermo Fisher/Invitrogen) and Hoechst 33342 (Thermo Fisher), at room temperature for 60 min. Following secondary antibody incubation, neurons were washed with 1×PBS and fluorescent images were acquired using a BD Pathway 855 bioimager. All acquired images were analyzed by CellProfiler.
Fluorescence immunocytochemistry and high content imaging analysis: After 72-hour drug treatment, the neurons were fixed with 4% paraformaldehyde in phosphate-buffered saline (PBS) at room temperature for 10 min. After brief washing with PBS three times, neurons were permeabilized with 1% Triton-X 100 in PBS at room temperature for 10 min, followed by blocking with 5% normal goat serum in 0.1% Triton-X 100 in 1×PBS at room temperature. 30 min after blocking, neurons were incubated with primary antibodies rabbit anti-GFP (1:1000, NB 600308, Novus Biologicals) and mouse anti-NeuN (1:500, MAB 377, Millipore) at 4° C. overnight. Neurons were then briefly washed with 1×PBS followed by incubation with secondary antibodies goat anti-rabbit Alexa Fluor 488 (1:500, A11008, Thermo Fisher/Invitrogen) and anti-mouse Alexa Fluor 568 (1:500, A21124, ThermoFisher/Invitrogen) together with DAPI (4′,6-diamidino-2-phenylindole) at room temperature for 60 min. Following secondary antibody incubation, neurons were washed with 1×PBS and fluorescent images were acquired using Nikon Ti2 eclipse fluorescent microscope (Nikon Instruments Inc., Melville, NY, USA). Antibody-enhanced UBE3A-YFP fluorescence intensities were determined from DAPI and NeuN double-positive individual neurons in drug-treated wells and normalized to neurons in untreated wells. All acquired images were analyzed by Nikon NIS-Elements software (Nikon Instruments Inc., Melville, NY, USA). Sigmoidal curve fitting for the dose response analysis was performed using GraphPad Prism software version 8.0 (GraphPad Software, La Jolla, CA, USA). The calculated EC50 values (potencies) and Y value top plateau (estimated efficacies) enables comparative analyses of the relative potency and efficacy of the identified compounds.

[8] = test system: Snrpn; test: Quantitative RT-PCR of Snrpn mRNA in cultured cortical neurons; assay type: cell-based, mouse; settings: qPCR normalized to β-actin, after drug treatment
Experimental: as §1, §2

[9] = test system: paternal UBE3A; test: Western blot of UBE3A protein (anti-Ube3a) in AS model (Ube3a^m-/p+) cortical neurons; assay type: cell-based, mouse; settings: 72 hr; Topotecan 0.3 μM, PHA533533 1.0 μM, Compound X 0.5 μM, Compound Y 0.5 μM; versus DMSO-treated WT neurons
Experimental: as §1
shRNA knockdown and western blot analysis: Lentiviral shRNAs of Top1 (TRCN0000011884), CDK2 (TRCN0000023146), and CDK5 (TRCN0000009520) were generated using previously described techniques. Cultured cortical neurons were infected at DIV 3 and virus was removed the next day (DIV 4). […] Following secondary antibody incubation, the membranes were rinsed (4-5 times) with 1×TBS-T at room temperature for 1 hr and ECL (Bio-Rad) was used to visualize detected proteins using an Amersham Imager 600 (AI600, GE Life Sciences).

[10] = test system: cultured mouse cortical neurons; assay type: cell-based
Experimental: Cytotoxicity test: Cytotoxicity of drugs was tested in cultured mouse cortical neurons in vitro. The manufacturer's protocol was followed to measure luminescence proportional to the number of dead cells using Cyto Tox-Glo assay (Promega). 72 hr after drug treatment, AAF-Glo substrates were directed added to the drug-treated (or 0.1% DMSO vehicle-treated) cortical neurons and incubated them at room temperature for 15 min. Luminescence produced by dead-cell protease activity was then measured.

## C[C@H](C(=O)Nc1cc(C2CC2)[nH]n1)c1ccc(N2CCOC2=O)cc1 [Compound P5-A4, (S)—N-(5-cyclopropyl-1H-pyrazol-3-yl)-2-(4-(2-oxooxazolidin-3-yl)phenyl)propenamide]
[1]
  UBE3A-YFP protein from the paternal allele (western blot): did not appreciably unsilence paternal Ube3a-YFP

## CC(C)N(C[C@H]1O[C@@H](n2cnc3c(N)ncnc32)[C@H](O)[C@@H]1O)[C@H]1C[C@@H](CCc2nc3cc(C(C)(C)C)ccc3[nH]2)C1 [EPZ5676, reference compound]
[2]
  methylation level on histone H3 lysine 79 (H3K79): reduced methylation level on histone H3 lysine 79 (H3K79)
[1]
  UBE3A-YFP protein from the paternal allele (western blot): did not appreciably unsilence paternal Ube3a-YFP

## C[C@H](C(=O)Nc1cc(C2CC2)[nH]n1)c1ccc(N2CCCC2=O)cc1 [PHA533533]
[2]
  methylation level on histone H3 lysine 79 (H3K79): reduced methylation level on histone H3 lysine 79 (H3K79)
[3]
  Snord116 mRNA: decreased
[4]
  mRNA of Ube3a-YFP: upregulated
[1]
  UBE3A-YFP protein from the paternal allele (western blot): increased UBE3A-YFP protein to levels approaching that of topotecan; also recorded: can produce UBE3A-YFP
  unsilencing of paternal Ube3a-YFP with CDK2 knocked down: did not unsilence paternal Ube3a-YFP unless neurons were treated
  unsilencing of paternal Ube3a-YFP with CDK5 knocked down: further enhanced
[5]
  Ube3a-ATS mRNA: significantly decreased; also recorded: downregulates Ube3a-ATS
[6]
  inhibition of Top2a: partially inhibited Top2a
[7]
  percent of neurons expressing UBE3A-YFP above threshold: 63.7±14.3%
  unsilencing of paternal Ube3a-YFP by imaging, in words: effectively unsilenced paternal Ube3a-YFP; also recorded: can unsilence paternal Ube3a-YFP
[7]; dose response, normalized fluorescent intensity
  potency (EC50) compared to topotecan, in words: slightly lower potency than topotecan
[8]
  Snrpn mRNA: decreased
[9]
  UBE3A protein from the paternal allele in AS model neurons (western blot): unsilenced paternal UBE3A at levels that approached that of UBE3A levels in DMSO-treated neurons from WT mice

## O=C(Cc1ccc2ccccc2c1)Nc1cc(C2CC2)[nH]n1 [PNU0292137]
[7]
  unsilencing of paternal Ube3a-YFP by imaging, in words: could not produce appreciable increases

## CC[C@@]1(O)C(=O)OCc2c1cc1n(c2=O)Cc2cc3c(CN(C)C)c(O)ccc3nc2-1 [topotecan, reference compound]
[3]
  Snord116 mRNA: decreased
[10]
  LC50 / cytotoxicity compared to topotecan, in words: comparable LC50
[4]
  mRNA of Ube3a-YFP: upregulated
[1]
  unsilencing of paternal Ube3a-YFP with CDK2 knocked down: did not unsilence paternal Ube3a-YFP unless neurons were treated
  unsilencing of paternal Ube3a-YFP with CDK5 knocked down: further enhanced
[1]; Top1 shRNA knockdown
  unsilencing of paternal Ube3a-YFP with Top1 knocked down: occlude unsilencing; also recorded: occluded the ability
[5]
  Ube3a-ATS mRNA: significantly decreased
[7]
  percent of neurons expressing UBE3A-YFP above threshold: 37.3±3.7%
  unsilencing of paternal Ube3a-YFP by imaging, in words: unsilenced paternal UBE3A-YFP
[8]
  Snrpn mRNA: decreased
[9]
  UBE3A protein from the paternal allele in AS model neurons (western blot): unsilenced paternal UBE3A at levels that approached that of UBE3A levels in DMSO-treated neurons from WT mice

## ICRF-193 [reference compound]
[6]
  inhibition of Top2a: inhibits the relaxation of catenated kDNA
